Consider one molecule from patent US12378250B2, “Tricyclic compound as IRAK4 inhibitor” (KOREA RESEARCH INSTITUTE OF CHEMICAL TECHNOLOGY, priority 2018, dated 2025).

Test [1] concerns TNF-α in serum, LPS-induced systemic inflammatory disease. Put plainly: Suppressive effects on LPS-induced systemic inflammatory disease in mice (serum TNF-α). Type of test: in vivo, C57BL/6 mice. The settings on record: doses of 50 and 100 mg/kg, oral, 2 hours prior to LPS 15 mg/kg i.p. The procedure: As experimental animals, 8-week-old C57BL/6 (20 to 23 g) mice were supplied from Orient Bio Co., Ltd. (Seongnam, Gyeonggi-do) and used. The mice were acclimatized for 2 weeks or more in an animal room of the Korea Research Institute of Chemical Technology, where temperature (22±1° C.) and humidity (50±10%) were automatically adjusted, and then used for experiments, and allowed to freely ingest water and feed. This animal experiment was performed with the approval of the Animal Care and Use Committee of the Korea Research Institute of Chemical Technology. A systemic inflammatory disease was induced by administering a dose of 15 mg/kg lipopolysaccharide (LPS, Sigma L2880) intraperitoneally to the mice. A test drug was suspended in a 10% Cremophor solution and administered orally 2 hours prior to LPS injection, the mice were anesthetized with isoflurane 1 hour after LPS administration, and blood was collected from the heart. Serum was obtained by centrifuging the collected blood at 13,000 rpm for 15 minutes, store at −20° C., and then taken if needed to measure the content of cytokine (TNF-α) in serum using an ELISA kit manufactured by BD Biosciences. […]

The target of another test is T1, IRAK4 enzyme (Homo sapiens, UniProt Q9NWZ3).
T1 sequence (Q9NWZ3 1-460): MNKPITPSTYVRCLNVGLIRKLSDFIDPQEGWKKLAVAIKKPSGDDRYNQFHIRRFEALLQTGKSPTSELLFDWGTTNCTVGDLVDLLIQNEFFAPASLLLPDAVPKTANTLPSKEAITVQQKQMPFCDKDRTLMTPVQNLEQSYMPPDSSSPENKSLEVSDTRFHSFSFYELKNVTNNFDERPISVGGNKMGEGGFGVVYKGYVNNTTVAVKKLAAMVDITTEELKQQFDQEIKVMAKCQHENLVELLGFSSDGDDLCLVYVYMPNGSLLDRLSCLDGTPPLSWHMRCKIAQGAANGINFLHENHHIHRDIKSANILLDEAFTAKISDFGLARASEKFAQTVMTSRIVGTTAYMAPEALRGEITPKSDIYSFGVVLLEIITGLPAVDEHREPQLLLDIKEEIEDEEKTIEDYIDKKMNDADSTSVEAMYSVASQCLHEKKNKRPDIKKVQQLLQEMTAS
As to the kind of experiment: IRAK4 enzyme inhibition degree (bead-based kinase assay, peptide substrate BMKC-2, 100 μM ATP). The format is biochemical. The settings on record: compound 1 μM. In outline:
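IRAK4 (0.4 ng/μl stock) preincubated 10 min with compound, then 6 μM BMKC-2 peptide with 100 μM ATP (mix concentrations) for 60 min at room temperature; EDTA stop. Phospho-Thr antibody with AlphaScreen donor/acceptor beads detected product; % inhibition versus controls, IC50 by non-linear regression.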

The test system of test [2] is ISG promoter, THP1-Lucia™ ISG cell line. As to the kind of experiment: ISG promoter inhibition, THP1-Lucia ISG cell line. Type of test: cell-based. The settings on record: 1 μg/ml Poly(dA:dT)/LyoVec, 24 hours, read-out: ISG, % inhibition degree. The method, boiled down: (§1)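 THP1-Lucia cells (NF-κB line 1×10^4/well, ISG line 2×10^4/well) preincubated with compound for 30 minutes. Stimulation then used 100 ng/ml LPS (NF-κB) or 1 μg/ml Poly(dA:dT)/LyoVec (ISG) for 24 hours. Secreted luciferase in supernatant measured by Quanti-luc luminescence.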

In test [3] the test system is NF-κB promoter, THP1-Lucia™ NF-κB cell line. As to the kind of experiment: NF-κB promoter inhibition, THP1-Lucia NF-κB cell line. The format is cell-based. The settings on record: 100 ng/ml LPS, 24 hours, read-out: NF-κB, % inhibition degree. The method, boiled down: as §1
The subject of test [4] is IFN-α secretion, peripheral blood mononuclear cells (PBMCs). Put plainly: Suppression of IFN-α secretion in ODN2216-treated PBMCs (ELISA). Particulars: PBMC, 500 nM ODN2216, 72 hours, read-out: IFN-α, % inhibition degree. Type of test: cell-based. In outline: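 PBMCs (1×10^5 cells/well for TNF-α, 2×10^5 for IFN-α) preincubated 30 min with compound, then stimulated with 100 ng/ml LPS for 24 h (TNF-α) or 500 nM ODN2216 for 72 h (IFN-α). Cytokines in supernatants quantified by sandwich ELISA with TMB, absorbance 450/570 nm.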

Each structure is given as a SMILES string.

In the case of `Fc1cncc(-c2ccc3[nH]c4ncnc(N[C@H]5CC[C@H](N6CCOCC6)CC5)c4c3c2)c1` [Compound 6aaf, 6-(5-fluoropyridin-3-yl)-N-(trans-4-morpholinocyclohexyl)-9H-pyrimido[4,5-b]indole-4-amine], the “suppressive effect on systemic inflammation (serum TNF-α) compared to PF-06650833” value in test [1] was “better suppressive effect than PF-06650833”. Also, the inhibition at 1 µM was found to be 100% against IRAK4 enzyme, 83% in test [2] (1 μM), 82% in test [3] (1 μM) and 96% in test [4] (1 μM). Moreover, the values for the inhibition at 0.1 µM in test [2] (0.1 μM), in test [3] (0.1 μM) and in test [4] (0.1 μM) were 24%, 43% and 48%, respectively.
